Data set [1] concerns THP-1. Briefly: Effect on RelB protein expression in human THP1 cells at 10 uM after 3 hrs by Western blot analysis. The format is functional, cell-based. (In general: A western blot detects proteins with antibodies after separation by electrophoresis.)
For data set [2], the target named is T1, Toll-like receptor 4 (Homo sapiens, UniProt O00206). Briefly: Antagonist activity at TLR4 in human THP1 cells harboring human TRAF6 assessed as inhibition of LPS-stimulated TNFalpha level at 10 uM by bead based immunoassay. The format is cell-based.
In data set [3] the test system is THP-1. Briefly: Upregulation of IKKalpha protein expression in human THP1 cells at 10 uM after 3 hrs by Western blot analysis. The format is functional, cell-based.
For data set [4], the target named is T2, Nuclear factor NF-kappa-B p100 subunit (Homo sapiens) (UniProt Q00653).
T2 sequence (whole entry): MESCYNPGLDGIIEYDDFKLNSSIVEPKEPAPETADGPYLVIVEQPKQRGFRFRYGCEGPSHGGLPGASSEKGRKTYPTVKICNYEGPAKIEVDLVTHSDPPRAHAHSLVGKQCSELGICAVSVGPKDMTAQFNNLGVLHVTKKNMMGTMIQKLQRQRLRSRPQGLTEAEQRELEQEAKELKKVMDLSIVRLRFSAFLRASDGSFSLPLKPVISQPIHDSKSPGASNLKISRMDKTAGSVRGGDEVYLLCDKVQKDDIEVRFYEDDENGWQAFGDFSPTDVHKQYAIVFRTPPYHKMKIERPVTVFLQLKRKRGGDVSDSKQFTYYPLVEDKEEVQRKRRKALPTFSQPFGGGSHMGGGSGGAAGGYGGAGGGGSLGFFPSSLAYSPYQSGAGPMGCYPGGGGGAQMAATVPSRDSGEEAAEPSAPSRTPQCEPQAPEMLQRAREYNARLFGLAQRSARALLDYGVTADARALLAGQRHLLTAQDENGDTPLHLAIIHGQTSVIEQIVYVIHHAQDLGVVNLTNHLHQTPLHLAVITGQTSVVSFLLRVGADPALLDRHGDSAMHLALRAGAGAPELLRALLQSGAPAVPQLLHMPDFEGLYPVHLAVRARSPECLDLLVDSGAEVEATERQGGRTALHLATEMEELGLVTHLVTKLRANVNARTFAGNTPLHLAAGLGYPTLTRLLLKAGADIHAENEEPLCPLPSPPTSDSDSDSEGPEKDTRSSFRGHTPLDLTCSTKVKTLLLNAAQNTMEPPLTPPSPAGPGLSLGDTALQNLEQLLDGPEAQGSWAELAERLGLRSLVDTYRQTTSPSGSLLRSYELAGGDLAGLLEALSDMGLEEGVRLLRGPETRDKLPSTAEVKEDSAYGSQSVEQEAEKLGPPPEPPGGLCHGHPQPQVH
Briefly: Effect on p100 phosphorylation in human THP1 cells at 10 uM after 3 hrs by Western blot analysis. The format is cell-based.

Data set [5] addresses T2, Nuclear factor NF-kappa-B p100 subunit (Homo sapiens). Briefly: Effect on p100/p52 phosphorylation in human THP1 cells at 10 uM after 3 hrs by Western blot analysis. The format is cell-based.
Data set [6] concerns the target T1, Toll-like receptor 4. Briefly: Antagonist activity at TLR4 in human THP1 cells harboring human TRAF6 assessed as inhibition of LPS-stimulated IL-1beta level at 10 uM by bead based immunoassay. The format is cell-based.
Data set [7] addresses Transcription factor p65 (Homo sapiens) (UniProt Q04206). Briefly: Inhibition of TNFalpha-stimulated NF-kB p65 activation (unknown origin) expressed in human AD293 cells assessed as nuclear translocation of p65 at 10 uM after 3 hrs by confocal microscopic method. In kind it is cell-based.
Data set [8] addresses T1, Toll-like receptor 4. Briefly: Antagonist activity at TLR4 in human THP1 cells assessed as inhibition of LPS-stimulated TNFalpha level at 10 uM by bead based immunoassay. In kind it is cell-based.
Data set [9] is filed under the species Homo sapiens. Briefly: Inhibition of TNFalpha-stimulated NF-kB signaling pathway (unknown origin) expressed in human AD293 cells after 4 hrs by luciferase reporter gene assay. In kind it is cell-based. For orientation: Reporter assays use an easily measured gene product as a stand-in for the process of interest.
Data set [10] deals with AD293. Briefly: Cytotoxicity against human AD293 cells assessed as reduction in cell viability after 24 hrs by methylene blue dye based spectrophotometric method. Conditions: ad293, 24 h.
For data set [11], the target named is Toll-like receptor 2 (Homo sapiens) (UniProt O60603). Briefly: Antagonist activity at TLR2 in human THP1 cells assessed as inhibition of PGN-stimulated IL-1beta level at 10 uM by bead based immunoassay. The format is cell-based.
Data set [12] deals with T3, NF-kappa-B inhibitor alpha (Homo sapiens) (UniProt P25963).
T3 sequence (whole entry): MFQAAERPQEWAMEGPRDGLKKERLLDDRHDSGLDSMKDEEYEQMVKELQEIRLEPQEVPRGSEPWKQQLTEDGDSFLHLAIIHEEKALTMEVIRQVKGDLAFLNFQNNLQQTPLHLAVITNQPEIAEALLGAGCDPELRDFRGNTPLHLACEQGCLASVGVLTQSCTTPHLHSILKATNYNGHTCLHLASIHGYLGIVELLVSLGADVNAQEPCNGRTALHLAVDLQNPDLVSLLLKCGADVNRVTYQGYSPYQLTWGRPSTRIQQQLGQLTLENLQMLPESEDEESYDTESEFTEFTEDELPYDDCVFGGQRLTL
Briefly: Inhibition of TNFalpha-stimulated IkBalpha phosphorylation in human AD293 cells at 10 uM after 3 hrs by Western blot analysis. In kind it is cell-based.

The target in data set [13] is T1, Toll-like receptor 4. Briefly: Antagonist activity at TLR4 in human THP1 cells assessed as inhibition of LPS-stimulated IL-6 level at 10 uM by bead based immunoassay. In kind it is cell-based.
The target of data set [14] is T1, Toll-like receptor 4. Briefly: Antagonist activity at TLR4 in human THP1 cells assessed as increase in LPS-stimulated NFkappaB p65 phosphorylation at 10 uM after 3 hrs by Western blot analysis. In kind it is cell-based.
Data set [15] concerns AD293. Briefly: Upregulation of IKKalpha protein expression in human AD293 cells at 10 uM after 3 hrs by Western blot analysis. In kind it is functional, cell-based.
Data set [16] deals with T1, Toll-like receptor 4. Briefly: Antagonist activity at TLR4 in human THP1 cells assessed as inhibition of LPS-stimulated NF-kB non-canonical signaling pathway by measuring decrease in RelB expression at 10 uM after 3 hrs by Western blot analysis. The format is cell-based.
Data set [17] concerns the target Toll-like receptor 3 (Homo sapiens) (UniProt O15455). Briefly: Antagonist activity at TLR3 in human THP1 cells assessed as inhibition of poly IC-stimulated TNFalpha level at 10 uM by bead based immunoassay. In kind it is cell-based.
In data set [18] the test system is AD293. Briefly: Effect on IkBalpha protein expression in TNFalpha-stimulated human AD293 cells at 10 uM after 3 hrs by Western blot analysis. In kind it is functional, cell-based.
In data set [19] the target is T1, Toll-like receptor 4. Briefly: Antagonist activity at TLR4 in human THP1 cells assessed as inhibition of LPS-stimulated NF-kB non-canonical signaling pathway by measuring decrease in p100 phosphorylation at 10 uM after 3 hrs by Western blot analysis. The format is cell-based.
Data set [20] has as its target T1, Toll-like receptor 4. Briefly: Antagonist activity at TLR4 in human THP1 cells harboring human TRAF6 assessed as inhibition of LPS-stimulated IL-6 level at 10 uM by bead based immunoassay. In kind it is cell-based.
Data set [21] deals with Transcription factor p65 (Homo sapiens) (UniProt Q04206). Briefly: Inhibition of TNFalpha-stimulated NF-kB p65 phosphorylation (unknown origin) expressed in human AD293 cells at 10 uM after 3 hrs by Western blot analysis. In kind it is cell-based.
Data set [22] addresses Toll-like receptor 3 (Homo sapiens) (UniProt O15455). Briefly: Antagonist activity at TLR3 in human THP1 cells assessed as inhibition of poly IC-stimulated IL-1beta level at 10 uM by bead based immunoassay. In kind it is cell-based.
In data set [23] the target is T1, Toll-like receptor 4. Briefly: Antagonist activity at TLR4 (unknown origin) expressed in human AD293 cells assessed as inhibition of LPS/ATP-stimulated TLR4/NF-kB signaling pathway after 16 hrs by luciferase reporter gene assay. In kind it is cell-based.

Calls of active or inactive are those of the source. The rule behind the calls is not given here. A value given as a limit tells only on which side of the number the result lay.

For orientation: EC10 means the concentration at which the effect reaches the 10% level. The low end stands for an effect from little substance, the high end for a need for much substance. As usually defined, the EC50 is the midpoint of the concentration-response curve.

Chain of Transcription factor p65 (Homo sapiens) (Q04206 whole entry): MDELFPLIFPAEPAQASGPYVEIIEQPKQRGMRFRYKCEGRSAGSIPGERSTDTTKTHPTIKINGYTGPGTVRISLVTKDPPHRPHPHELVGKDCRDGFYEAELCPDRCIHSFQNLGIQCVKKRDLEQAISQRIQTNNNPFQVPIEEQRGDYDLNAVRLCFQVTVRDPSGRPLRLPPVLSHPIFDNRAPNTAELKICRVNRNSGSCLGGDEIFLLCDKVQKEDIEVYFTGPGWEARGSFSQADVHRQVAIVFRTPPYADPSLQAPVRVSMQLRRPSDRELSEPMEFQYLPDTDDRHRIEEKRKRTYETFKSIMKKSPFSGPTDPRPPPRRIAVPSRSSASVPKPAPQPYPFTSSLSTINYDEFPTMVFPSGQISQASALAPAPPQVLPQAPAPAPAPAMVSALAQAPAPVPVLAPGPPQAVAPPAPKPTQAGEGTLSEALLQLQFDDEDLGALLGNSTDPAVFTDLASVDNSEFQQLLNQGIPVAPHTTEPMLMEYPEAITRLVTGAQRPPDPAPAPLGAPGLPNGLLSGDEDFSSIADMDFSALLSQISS
Chain of Toll-like receptor 3 (Homo sapiens) (O15455 whole entry): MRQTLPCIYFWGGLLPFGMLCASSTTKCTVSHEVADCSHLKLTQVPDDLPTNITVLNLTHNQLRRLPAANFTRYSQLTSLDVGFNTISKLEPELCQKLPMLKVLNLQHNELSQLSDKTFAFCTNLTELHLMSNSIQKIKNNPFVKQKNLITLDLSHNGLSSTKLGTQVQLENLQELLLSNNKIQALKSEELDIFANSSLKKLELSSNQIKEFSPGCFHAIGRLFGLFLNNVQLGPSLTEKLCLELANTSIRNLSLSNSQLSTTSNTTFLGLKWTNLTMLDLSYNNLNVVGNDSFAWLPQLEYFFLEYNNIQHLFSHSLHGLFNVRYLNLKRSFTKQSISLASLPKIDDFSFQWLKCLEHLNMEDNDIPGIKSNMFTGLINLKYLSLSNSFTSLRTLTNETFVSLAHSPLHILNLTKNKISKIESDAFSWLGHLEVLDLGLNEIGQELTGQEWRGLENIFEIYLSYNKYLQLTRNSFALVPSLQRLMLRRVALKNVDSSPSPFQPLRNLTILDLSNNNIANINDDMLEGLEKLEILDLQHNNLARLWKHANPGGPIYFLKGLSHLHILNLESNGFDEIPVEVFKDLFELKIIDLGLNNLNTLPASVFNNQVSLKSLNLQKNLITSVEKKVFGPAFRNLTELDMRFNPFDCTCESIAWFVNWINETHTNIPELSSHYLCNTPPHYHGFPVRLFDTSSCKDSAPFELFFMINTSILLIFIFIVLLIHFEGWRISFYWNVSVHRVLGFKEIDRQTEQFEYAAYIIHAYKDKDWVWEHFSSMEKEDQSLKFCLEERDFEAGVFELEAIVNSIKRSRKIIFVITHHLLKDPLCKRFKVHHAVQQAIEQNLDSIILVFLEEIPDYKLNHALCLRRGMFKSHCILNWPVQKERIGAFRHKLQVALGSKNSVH
T1 sequence (O00206 whole entry): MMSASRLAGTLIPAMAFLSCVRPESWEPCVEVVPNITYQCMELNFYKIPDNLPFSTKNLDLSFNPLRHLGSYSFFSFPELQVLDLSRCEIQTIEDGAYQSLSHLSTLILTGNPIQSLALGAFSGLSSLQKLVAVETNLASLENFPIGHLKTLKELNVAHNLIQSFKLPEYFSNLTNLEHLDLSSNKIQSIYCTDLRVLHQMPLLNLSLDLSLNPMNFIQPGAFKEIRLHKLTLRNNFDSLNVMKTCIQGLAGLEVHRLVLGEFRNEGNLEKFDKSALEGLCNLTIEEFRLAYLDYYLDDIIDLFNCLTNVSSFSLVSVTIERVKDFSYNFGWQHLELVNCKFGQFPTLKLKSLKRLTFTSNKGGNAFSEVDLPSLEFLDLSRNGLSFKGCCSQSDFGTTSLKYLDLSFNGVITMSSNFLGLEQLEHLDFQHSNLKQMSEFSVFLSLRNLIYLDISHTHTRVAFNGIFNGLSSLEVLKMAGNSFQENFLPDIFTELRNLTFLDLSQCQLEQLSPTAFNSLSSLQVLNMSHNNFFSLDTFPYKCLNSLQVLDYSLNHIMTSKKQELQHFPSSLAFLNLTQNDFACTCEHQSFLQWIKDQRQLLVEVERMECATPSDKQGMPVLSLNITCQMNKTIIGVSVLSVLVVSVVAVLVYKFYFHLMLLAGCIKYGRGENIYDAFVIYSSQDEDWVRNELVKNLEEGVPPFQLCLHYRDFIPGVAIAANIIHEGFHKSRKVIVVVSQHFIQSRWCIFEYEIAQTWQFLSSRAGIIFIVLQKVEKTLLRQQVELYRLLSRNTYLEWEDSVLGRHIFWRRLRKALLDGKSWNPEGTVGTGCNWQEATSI
Chain of Toll-like receptor 2 (Homo sapiens) (O60603 whole entry): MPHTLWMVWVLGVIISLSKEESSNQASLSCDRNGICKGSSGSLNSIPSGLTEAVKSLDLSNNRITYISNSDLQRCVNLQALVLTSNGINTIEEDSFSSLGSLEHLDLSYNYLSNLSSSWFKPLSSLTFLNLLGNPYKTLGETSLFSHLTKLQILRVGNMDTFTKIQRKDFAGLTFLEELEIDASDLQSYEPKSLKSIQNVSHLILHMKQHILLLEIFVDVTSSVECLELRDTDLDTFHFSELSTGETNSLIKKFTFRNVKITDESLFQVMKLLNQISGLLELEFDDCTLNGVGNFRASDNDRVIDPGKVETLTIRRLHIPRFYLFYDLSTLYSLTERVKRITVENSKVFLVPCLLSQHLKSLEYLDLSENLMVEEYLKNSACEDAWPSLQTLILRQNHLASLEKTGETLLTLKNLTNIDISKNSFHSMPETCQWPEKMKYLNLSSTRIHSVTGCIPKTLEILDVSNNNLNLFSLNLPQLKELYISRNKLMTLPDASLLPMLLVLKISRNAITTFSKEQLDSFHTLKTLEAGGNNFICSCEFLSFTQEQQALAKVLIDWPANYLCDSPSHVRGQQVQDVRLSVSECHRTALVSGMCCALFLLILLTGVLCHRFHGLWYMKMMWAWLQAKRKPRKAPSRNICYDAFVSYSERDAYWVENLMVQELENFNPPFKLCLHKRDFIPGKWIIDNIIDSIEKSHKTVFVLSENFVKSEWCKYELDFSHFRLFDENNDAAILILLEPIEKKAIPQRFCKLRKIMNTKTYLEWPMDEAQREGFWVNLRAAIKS

`CC(=O)[C@]1(O)CC[C@@]2(O)[C@]1(C)[C@H](OC(=O)c1ccc(O)cc1)C[C@@H]1[C@@]3(C)CC[C@H](OC(=O)CCl)CC3=CC[C@]12O`: the result in data set [1], in [4], in data set [5] and in [18] was inactive. In addition, the inhibition result in [2], in data set [6], in [7], in [12], in data set [14] and in data set [16] was “inactive” in each case. In addition, the inhibition entry in data set [19], in data set [20] and in data set [21] was “inactive” in each case. For the same compound, the result in [3] and in data set [15] was Active. The inhibition result in data set [8], in [11], in [13], in data set [17] and in [22] was “Active” throughout. This compound also displayed a 10% effect concentration (EC10) in data set [9] above 10 µM. In addition, the CC10 in [10] is above 10 µM. Further, the EC50 in data set [23] came out at 3.27 µM.

In the case of `COc1ccc(/C=C/C(=O)O[C@H]2CC[C@@]3(C)C(=CC[C@]4(O)[C@@H]3C[C@@H](OC(=O)/C=C(\C)C(C)C)[C@@]3(C)[C@]4(O)CC[C@@]3(O)C(C)=O)C2)cc1`, the result in data set [1], in [4], in data set [5] and in [18] was inactive. For the same compound, the inhibition result in data set [2], in data set [6], in [7], in data set [12], in data set [16] and in [19] was “inactive” throughout. Moreover, the inhibition result in data set [20] and in [21] was “inactive” each time. In addition, the result in [3] and in data set [15] was Active. For the same compound, the inhibition result in data set [8], in data set [11], in data set [13], in data set [14], in data set [17] and in data set [22] was “Active” each time. Also, the EC10 in data set [9] is above 10 µM. In [10], the CC10 was above 10 µM. The 50% effective concentration (EC50) in data set [23] came to 3.95 µM.

For the origin of these results see ChEMBL document CHEMBL4033685, “C21-steroidal pregnane sapogenins and their derivatives as anti-inflammatory agents” (Bioorg Med Chem, 2017).
